How the values were obtained:
rat mGluR5 receptor = biological target: T1, rat mGluR5 receptor (Rattus norvegicus, UniProt P31424); assay: [3H]-MPEP displacement binding assay, HEK-293 cell membranes expressing rat mGluR5; conditions: [3H]-MPEP displacement, rat mGluR5; read-out: Median Ki
T1 construct: expressed in transfected cells; host or cells: HEK-293
Summary of the method: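 Membranes from HEK-293 cells expressing rat mGluR5 (12-25 μg protein), incubated 60 min at room temperature with 4 nM [3H]-MPEP in 50 mM Tris pH 7.5, then filtered. Nonspecific binding defined with 10 μM MPEP.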

mGluR5 = mGluR5 (Rattus norvegicus, UniProt P31424); assay: IC50 column under 'Biological Activity' (assay not identified in the shown text; not the binding Ki)
Sequence of mGluR5 (P31424 21-1203): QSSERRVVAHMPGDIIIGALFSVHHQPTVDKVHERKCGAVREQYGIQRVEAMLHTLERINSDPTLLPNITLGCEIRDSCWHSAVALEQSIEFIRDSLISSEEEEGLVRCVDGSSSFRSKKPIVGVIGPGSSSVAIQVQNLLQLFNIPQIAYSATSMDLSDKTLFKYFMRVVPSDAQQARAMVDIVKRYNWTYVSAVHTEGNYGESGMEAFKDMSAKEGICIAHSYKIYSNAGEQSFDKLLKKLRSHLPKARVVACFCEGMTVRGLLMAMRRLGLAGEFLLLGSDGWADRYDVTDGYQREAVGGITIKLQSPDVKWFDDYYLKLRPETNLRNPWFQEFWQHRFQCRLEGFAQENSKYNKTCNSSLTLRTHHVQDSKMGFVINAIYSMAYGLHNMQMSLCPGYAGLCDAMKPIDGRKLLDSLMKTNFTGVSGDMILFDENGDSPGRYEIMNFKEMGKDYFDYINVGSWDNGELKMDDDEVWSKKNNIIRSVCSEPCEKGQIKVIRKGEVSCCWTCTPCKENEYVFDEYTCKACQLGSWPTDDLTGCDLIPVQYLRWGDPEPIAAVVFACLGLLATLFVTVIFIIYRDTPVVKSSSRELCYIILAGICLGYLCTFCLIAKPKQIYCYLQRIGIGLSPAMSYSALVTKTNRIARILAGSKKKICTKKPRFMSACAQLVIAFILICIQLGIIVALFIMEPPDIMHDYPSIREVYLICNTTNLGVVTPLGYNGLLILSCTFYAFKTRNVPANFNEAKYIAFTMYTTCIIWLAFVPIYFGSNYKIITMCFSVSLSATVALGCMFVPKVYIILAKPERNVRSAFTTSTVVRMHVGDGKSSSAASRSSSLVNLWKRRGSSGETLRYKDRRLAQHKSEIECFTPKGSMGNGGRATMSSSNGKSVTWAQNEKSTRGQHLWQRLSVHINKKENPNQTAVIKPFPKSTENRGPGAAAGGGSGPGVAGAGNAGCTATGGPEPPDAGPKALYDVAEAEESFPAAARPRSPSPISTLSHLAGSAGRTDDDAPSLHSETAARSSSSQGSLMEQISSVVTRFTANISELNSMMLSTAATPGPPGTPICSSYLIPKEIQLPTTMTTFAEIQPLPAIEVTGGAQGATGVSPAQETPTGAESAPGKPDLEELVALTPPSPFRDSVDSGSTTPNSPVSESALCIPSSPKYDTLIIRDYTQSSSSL

T1 sequence (P31424 21-1203): as above

Ki (rat mGluR5 receptor) | IC50 (mGluR5) | SMILES
0.024 µM | 0.096 µM | COc1ccc(C(=O)N2CCN(c3ccccc3)CC2C)cc1C#Cc1ccccn1 (centres unmarked) [Compound 250, 1-[4-methoxy-3-(pyridin-2-ylethynyl)benzoyl]-2-methyl-4-phenylpiperazine]
0.006 µM | 0.025 µM | COc1ccc(C(=O)N2CCN(c3noc4ccccc34)CC2)cc1C#Cc1ccccn1 [Compound 251, 3-{4-[4-methoxy-3-(pyridin-2-ylethynyl)benzoyl]piperazin-1-yl}-1,2-benzisoxazole]
0.033 µM | 0.192 µM | COc1ccc(C(=O)N2CCN(c3ccc(C#N)cn3)CC2)cc1C#Cc1ccccn1 [Compound 252, 6-{4-[4-methoxy-3-(pyridin-2-ylethynyl)benzoyl]piperazin-1-yl}nicotinonitrile]
0.021 µM | 0.18 µM | COc1ccc(C(=O)N2CCN(S(=O)(=O)c3ccc(C)cc3)CC2)cc1C#Cc1ccccn1 [Compound 253, 1-[4-methoxy-3-(pyridin-2-ylethynyl)benzoyl]-4-[(4-methylphenyl)sulfonyl]piperazine]
0.009 µM | 0.129 µM | COc1ccc(C(=O)N2CCN(c3cccc(Cl)n3)CC2)cc1C#Cc1ccccn1 [Compound 255, 1-(6-chloropyridin-2-yl)-4-[4-methoxy-3-(pyridin-2-ylethynyl)benzoyl]piperazine]
0.038 µM | 0.11 µM | COc1ccc(C(=O)N2CCN(c3nc4ccccc4o3)CC2)cc1C#Cc1ccccn1 [Compound 257, 2-{4-[4-methoxy-3-(pyridin-2-ylethynyl)benzoyl]piperazin-1-yl}-1,3-benzoxazole]
0.041 µM | 0.095 µM | COc1ccc(C(=O)N2CCN(C(=O)c3ccco3)CC2)cc1C#Cc1ccccn1 [Compound 258, 1-(2-furoyl)-4-[4-methoxy-3-(pyridin-2-ylethynyl)benzoyl]piperazine]
0.038 µM | 0.157 µM | COc1ccc(C(=O)N2CCN(Cc3ccc4c(c3)OCO4)CC2)cc1C#Cc1ccccn1 [Compound 259, 1-(1,3-benzodioxol-5-ylmethyl)-4-[4-methoxy-3-(pyridin-2-ylethynyl)benzoyl]piperazine]
0.017 µM | 0.148 µM | COc1ccc(C(=O)N2CCN(c3ncc(Br)cn3)CC2)cc1C#Cc1ccccn1 [Compound 262, 5-bromo-2-{4-[4-methoxy-3-(pyridin-2-ylethynyl)benzoyl]piperazin-1-yl}pyrimidine]
0.054 µM | > 1 µM | COc1ccc(C(=O)N2CCN(C(=O)c3ccc(OC)c(C#Cc4ccccn4)c3)CC2)cc1 [Compound 265, 1-(4-methoxybenzoyl)-4-[4-methoxy-3-(pyridin-2-ylethynyl)benzoyl]piperazine]
0.033 µM | > 1 µM | COc1ccc(C(=O)N2CCN(Cc3ccccc3F)CC2)cc1C#Cc1ccccn1 [Compound 266, 1-(2-fluorobenzyl)-4-[4-methoxy-3-(pyridin-2-ylethynyl)benzoyl]piperazine]
0.057 µM | 0.167 µM | COc1ccc(C(=O)N2CCN(Cc3cccc(F)c3)CC2)cc1C#Cc1ccccn1 [Compound 267, 1-(3-fluorobenzyl)-4-[4-methoxy-3-(pyridin-2-ylethynyl)benzoyl]piperazine]
0.057 µM | 0.219 µM | COc1ccc(C(=O)N2CCN(Cc3ccc(F)cc3)CC2)cc1C#Cc1ccccn1 [Compound 268, 1-(4-fluorobenzyl)-4-[4-methoxy-3-(pyridin-2-ylethynyl)benzoyl]piperazine]
0.089 µM | 0.316 µM | COc1ccc(C(=O)N2CCN(Cc3cccc(Cl)c3)CC2)cc1C#Cc1ccccn1 [Compound 274, 1-(3-chlorobenzyl)-4-[4-methoxy-3-(pyridin-2-ylethynyl)benzoyl]piperazine]
0.017 µM | 0.144 µM | COc1ccc(C(=O)N2CCN(Cc3ccc(Cl)cc3)CC2)cc1C#Cc1ccccn1 [Compound 275, 1-(4-chlorobenzyl)-4-[4-methoxy-3-(pyridin-2-ylethynyl)benzoyl]piperazine]
0.043 µM | 0.317 µM | COc1ccc(C(=O)N2CCN(Cc3ccc(Cl)cc3Cl)CC2)cc1C#Cc1ccccn1 [Compound 280, 1-(2,4-dichlorobenzyl)-4-[4-methoxy-3-(pyridin-2-ylethynyl)benzoyl]piperazine]
0.007 µM | 0.326 µM | COc1ccc(C(=O)N2CCN(Cc3ccc(Br)cc3F)CC2)cc1C#Cc1ccccn1 [Compound 285, 1-(4-bromo-2-fluorobenzyl)-4-[4-methoxy-3-(pyridin-2-ylethynyl)benzoyl]piperazine]
0.07 µM | > 1000 µM | COc1ccc(C(=O)N2CCN(S(=O)(=O)c3ccc4ccccc4c3)CC2)cc1C#Cc1ccccn1 [Compound 287, 1-[4-methoxy-3-(pyridin-2-ylethynyl)benzoyl]-4-(2-naphthylsulfonyl)piperazine]
0.014 µM | 0.208 µM | COc1ccc(C(=O)N2CCN(c3ccccc3)CC2)cc1C#Cc1ccccn1 [Compound 292, 1-[4-methoxy-3-(pyridin-2-ylethynyl)benzoyl]-4-phenylpiperazine]

Ki (rat mGluR5 receptor) | IC50 (mGluR5) | SMILES
0.058 µM | > 1 µM | COc1ccc(C(=O)N2CCN(c3ncc(C#N)c(N)n3)CC2)cc1C#Cc1ccccn1 [Compound 293, 4-Amino-2-(4-(4-methoxy-3-(pyridin-2-ylethynyl)benzoyl)piperazin-1-yl)pyrimidine-5-carbonitrile]
0.022 µM | > 1 µM | COc1ccc(C(=O)N2CCN(c3ccnc(SC)n3)CC2)cc1C#Cc1ccccn1 [Compound 296, 4-{4-[4-methoxy-3-(pyridin-2-ylethynyl)benzoyl]piperazin-1-yl}-2-(methylthio)pyrimidine]
0.033 µM | 0.102 µM | COc1ccc(C(=O)N2CCN(c3ncc(F)cn3)CC2)cc1C#Cc1ccccn1 [Compound 298, 5-fluoro-2-{4-[4-methoxy-3-(pyridin-2-ylethynyl)benzoyl]piperazin-1-yl}pyrimidine]
0.025 µM | 0.119 µM | COc1cnc(N2CCN(C(=O)c3ccc(OC)c(C#Cc4ccccn4)c3)CC2)nc1 [Compound 299, 5-methoxy-2-{4-[4-methoxy-3-(pyridin-2-ylethynyl)benzoyl]piperazin-1-yl}pyrimidine]
0.03 µM | 0.198 µM | COc1ccc(C(=O)N2CCN(c3ncc(F)c(N)n3)CC2)cc1C#Cc1ccccn1 [Compound 300, 5-fluoro-2-{4-[4-methoxy-3-(pyridin-2-ylethynyl)benzoyl]piperazin-1-yl}pyrimidin-4-amine]
0.083 µM | 0.204 µM | COc1ccc(N2CCN(C(=O)c3ccc(OC)c(C#Cc4ccccn4)c3)CC2)nn1 [Compound 301, 3-methoxy-6-{4[4-methoxy-3-(pyridin-2-ylethynyl)benzoyl]piperazin-1-yl}pyridazine]
0.039 µM | > 1 µM | COc1ccc(C(=O)N2CCN(c3nnc(Cl)cc3C)CC2)cc1C#Cc1ccccn1 [Compound 302, 6-chloro-3-{4-[4-methoxy-3-(pyridin-2-ylethynyl)benzoyl]piperazin-1-yl}-4-methylpyridazine]
0.031 µM | > 1 µM | COc1ccc(C(=O)N2CCN(c3ccc(Cl)nn3)CC2)cc1C#Cc1ccccn1 [Compound 303, 3-chloro-6-{4-[4-methoxy-3-(pyridin-2-ylethynyl)benzoyl]piperazin-1-yl}pyridazine]
0.052 µM | 0.408 µM | COc1ccc(C(=O)N2CCN(c3nccnc3Cl)CC2)cc1C#Cc1ccccn1 [Compound 304, 2-chloro-3-{4-[4-methoxy-3-(pyridin-2-ylethynyl)benzoyl]piperazin-1-yl}pyrazine]
0.072 µM | 0.356 µM | COc1ccc(C(=O)N2CCN(c3nnc(Cl)c4ccccc34)CC2)cc1C#Cc1ccccn1 [Compound 306, 1-chloro-4-{4-[4-methoxy-3-(pyridin-2-ylethynyl)benzoyl]piperazin-1-yl}phthalazine]
0.001 µM | 0.05 µM | Cc1ccc(C(=O)N2CCN(c3noc4ccccc34)CC2)cc1C#Cc1ccccn1 [Compound 307, 3-{4-[4-Methyl-3-(pyridin-2-ylethynyl)benzoyl]piperazin-1-yl}-1,2-benzisoxazole]
0.008 µM | 0.107 µM | COc1ccnc(N2CCN(C(=O)c3ccc(C)c(C#Cc4ccccn4)c3)CC2)n1 [Compound 308, 4-Methoxy-2-{4-[4-methyl-3-(pyridin-2-ylethynyl)benzoyl]piperazin-1-yl}pyrimidine]
0.034 µM | 0.193 µM | Cc1ccc(C(=O)N2CCN(c3ncccn3)CC2)cc1C#Cc1ccccn1 [Compound 309, 2-{4-[4-methyl-3-(pyridin-2-ylethynyl)benzoyl]piperazin-1-yl}pyrimidine]
0.023 µM | 0.062 µM | O=C(c1ccc(F)c(C#Cc2ccccn2)c1)N1CCN(c2ccccn2)CC1 [Compound 313, 1-[4-fluoro-3-(pyridin-2-ylethynyl)benzoyl]-4-pyridin-2-ylpiperazine]
0.002 µM | 0.024 µM | O=C(c1ccc(F)c(C#Cc2ccccn2)c1)N1CCN(c2noc3ccccc23)CC1 [Compound 316, 3-{4-[4-fluoro-3-(pyridin-2-ylethynyl)benzoyl]piperazin-1-yl}-1,2-benzisoxazole]
0.02 µM | 0.03 µM | COc1ccnc(N2CCN(C(=O)c3ccc(F)c(C#Cc4ccccn4)c3)CC2)n1 [Compound 317, 2-{4-[4-fluoro-3-(pyridin-2-ylethynyl)benzoyl]piperazin-1-yl}-4-methoxypyrimidine]
0.018 µM | 0.019 µM | CCOc1ccc(C(=O)N2CCN(c3ccccn3)CC2)cc1C#Cc1ccccn1 [Compound 318, 1-[4-ethoxy-3-(pyridin-2-ylethynyl)benzoyl]-4-pyridin-2-ylpiperazine]
0.02 µM | 0.031 µM | CCOc1ccc(C(=O)N2CCN(c3nccc(OC)n3)CC2)cc1C#Cc1ccccn1 [Compound 320, 2-{4-[4-ethoxy-3-(pyridin-2-ylethynyl)benzoyl]piperazin-1-yl}-4-methoxypyrimidine]

Reference: patent publication US20090325964A1, “Piperazine Metabotropic Glutamate Receptor 5 (MGLUR5) Negative Allosteric Modulators For Anxiety/Depression” (Wyeth, priority 2008, published 2009)
